Test results reported in patent US20070098735A1, “Methods for the Elimination of Pathogens and Other Particulate Agents” (priority 2005, published 2007).

Key:
[1] = tested on: full thickness surgical wounds on the dorsum of BALB/cJ mice; assay: Closure of full thickness surgical wounds, percent wound closure; assay type: in vivo
Procedure: Surgery and Treatment. Mice were anesthetized using Ketamine (2.0 mg/mouse) and Xylazine (0.1 mg/mouse) were administered intraperitoneally (IP) and the dorsal skin was shaved. After sterile prepping of the area, a full thickness circular wound, 8 mm diameter, was made on the dorsal skin using a disposable biopsy punch (Miltex Inc, York, Pa.) on the midline of the dorsum approximately at the iliac crest. The mice were then randomly assigned into the treatment groups. Initial wound measurements were performed while the mice were still anesthetized. Mice were then treated on days 0, 2, 4, and 6 unless otherwise specified. All agents used as treatment were diluted in 0.5 ml of PBS and injected using a 25-gauge needle in the subcutaneous space in the nape of the neck. The surgical procedures, post-operative monitoring, and safety concerns were approved by the Institutional Animal Care and Usage Committee.
Measurements and Analysis. Wound healing of open wounds is a complex process with many parameters to consider. […] The wound surface area was determined by measuring the craniocaudal and lateromedial distances using vernier calipers in perpendicular axis on days 0, 2, 4, 6, 9, and 11 postoperatively unless noted. Changes in wound area were expressed as percent wound closure. Wound closure data was plotted as average percent wound closure ±SEM unless otherwise noted. All calculations and data analysis were performed using Microsoft Excel and Sigma Plot. Sigma Plot was used to perform Student's t-tests for reported P values.
Full thickness surgical wounds were created on the dorsum of BALB/cJ mice as described in Methods. Wounds were made on day 0. Subsequently, the wounds were treated with exogenous injections of HSP70, HSP90, gp96 (30 μg/dose) or buffer administered subcutaneously (SC) on days 0, 2, 4 and 6 following surgery (FIG. 6A). The wounds were measured on days 0, 2, 4, 6, 9, 11 unless otherwise noted. Wounds were measured serially, percent wound closure was calculated and plotted against time in order to quantitate the rate of healing by secondary intention. […] Data is plotted as average percent wound closure ±SEM on days indicated. Two mice from each treatment group (PBS (n=12), HSP70 (n=11), HSP90 (n=12), and gp96 (n=11)) were sacrificed for histology on days 2, 4, and 6 post-surgery (data not shown). The P values obtain using the Student's t-test.
Results are of average percent wound closure ±SEM on day 2 post surgery. The *P values were obtained using the Student's t-test by comparing HSP treatment to all of the non-HSP control treatments. The least significant P value was reported. […] Doses higher than 50 μg/dose were not tested.

[2] = tested on: macrophages (TNF-α release); assay: TNF-α release by LPS-treated macrophages in presence or absence of serum; assay type: cell-based; details: serum-free conditions
Procedure: HSP70 used in all assays was purified using LPS-free sterile packaged plastic ware, baked glass ware (420° F. for 4 hours) and using endotoxin-free culture grade reagents to minimize inadvertent LPS contamination. Further, LPS levels and activity in the purified HSPs were quantified and confirmed to be <1 EU/mg of protein. Next, HSPs and LPS were compared for their influence on phagocytosis in presence or absence of serum. These conditions were specifically chosen since LPS-binding protein (LBP), an essential mediator for LPS function, is not present in serum-free conditions. As a control, macrophages were treated with LPS in presence or absence of serum and their ability to elicit TNF-α release was compared (FIG. 3A). […] Briefly, macrophages were treated with HSP70 (100 μg/ml) or LPS (different doses ranging 25 ng-1 μg/ml) in serum-free conditions for 1 hour and a phagocytosis assay was performed. […] The error bar is one standard deviation. The results shown are a cumulative analysis of 3 experiments, 3 wells/group.

[3] = tested on: full thickness wounds of naïve mice; assay: Adoptive transfer of pre-treated RAW 264.7 macrophages into wounded mice, wound closure; assay type: in vivo; details: 400,000 macrophages pre-treated at 30 μg/dose; day 2 post surgery
Procedure: Macrophage Cell Culture, Pre-treatment, and Adoptive Transfer. RAW 264.7 macrophages (ATCC) were grown as described by ATCC. Cells were harvested by gently scraping them from the cell culture flasks, centrifuged and washed once in cultured grade PBS. […] They were then washed 3 times with PBS, and were re-suspended to achieve a concentration of 400,000, 40,000, or 4,000 cells per 0.5 ml PBS. Adoptive transfer of these cells was performed by subcutaneous injections in the nape of the neck using a 25-gauge needle in mice that were wounded as previously described. Adoptive transfers were given on days 0, 2 and 4 post-operatively.
Macrophages were treated in vitro with either HSPs or non-HSP controls and transferred into naïve wounded mice (as described in Materials and Methods) to test if HSPs could in part mediate some of their activity through macrophages. […] Data is plotted as average percent wound closure ±SEM on day 2. *P values were obtained using the Student's t-test by comparing HSP treatment to all of the non-HSP control treatments. The least significant P value was reported.
Titratability of adoptive transfer was examined by transferring 4,000, 40,000 or 400,000 macrophages pre-treated as described in Materials and Methods.

[4] = tested on: RAW 264.7 macrophages; assay: In vitro macrophage phagocytosis of wound debris; assay type: cell-based, murine; details: RAW264.7, labeled wound debris
[5] = tested on: Murine macrophage lines (RAW264.7, J774.A1 or RAW264NO-); assay: Phagocytosis assay in vitro (uptake of Alexa Fluor 488-labeled particles); assay type: cell-based; parameters: effect of LR-disrupting drugs on HSP70-mediated phagocytosis: dose or concentration left out as unconfirmed
Procedure: Phagocytosis Assay in vitro. RAW 264.7, RAW264.7 (NO-) and J774A.1 cells were cultured in DMEM or RPMI (RAW NO-) with 10% FCS, harvested, and washed. 3×10^5 cells/well were incubated in serum-free Earle's minimal essential medium (EMEM) in a 24-well plate for 1 hour at 37° C. Alexa Fluor® 488-labeled particles (inert polystyrene microspheres; or yeast, Saccharomyces cerevisiae or Gram-negative bacteria, Escherichia coli, 40 particles/macrophage) were added and co-incubated in a dark environment for 60 minutes in serum free EMEM with or without HSPs, LPS, or control proteins. At the end of 60 minutes incubation, the plate was covered in a dark container on ice. Specific measures were taken to exclude the fluorescence that resulted from particles that were outside of the cell or sticking to the surface of the cell. […] Specifically, trypan blue (0.8 mg/ml) was added for 60 seconds and plates were analyzed immediately using FluorImager SI (Molecular Dynamics/Amersham). Since the emission of Alexa Fluor® 488, about 519 nm at an excitation of about 490 nm, falls within the absorbance range of trypan blue (475-675 nm), the fluorescence of the sample only represents the intracellular fluorescence. External or surface-bound fluorescence is quenched. Using Student's t test, the results were analyzed and P-values were calculated.
HSP-mediated phagocytosis was quantified by measuring the internalized fluorescence measured by FluorImager SI and Relative Mean Fluorescence Intensity (RMFI) was compared between the treatment groups (as indicated). All the treatment groups were compared to medium alone using the Student's t test and significance denoted by P<0.01. The error bar represents one standard deviation. The results shown are a cumulative analysis of 3 experiments, 3 wells/group.

[6] = tested on: lipid raft (LR) microdomain of the macrophage plasma membrane; assay: Binding of exogenous HRP-labeled HSP70 to purified lipid raft fractions; parameters: species or system murine; details: MCD (30 mM); HRP-labeled HSP70 100 μg/ml; Triton X-100
Procedure: Purification of lipid rafts. Lipid rafts were purified as DRMs (detergent resistant membrane) using non-ionic detergents following sucrose gradient centrifugation. […] After incubation, cells were washed 3× with PBS and lysed with 2 ml MES (4-morpholinoethanesulfonic acid) buffered saline (MBS; 150 mM NaCl, 20 mM MES, pH 6.5, […] and 5 mM iodoacetamide) containing 0.5% Triton X-100 or 1% for 30 minutes on ice or 7 minutes at 37° C. respectively. The cells were mixed with an equal volume of 90% sucrose in MEB buffer (150 mM NaCl, 20 mM MES [pH 6.5]) and placed at the bottom of the centrifuge tube. […] Fractions of 1 ml each were collected from the bottom of tube and each fraction was analyzed by SDS-PAGE and immunoblotting.
Briefly, RAW264.7 macrophages were treated with exogenous HRP-labeled HSP70 (100 μg/ml) or were left untreated for 60 minutes and washed with PBS three times to remove free HSPs. […] These fractions obtained (light: LR and heavy: non-LR) were then analyzed using immunoblotting to detect HRP activity of HSP70-HRP complexes or tested for the presence of an LR-associated ganglioside GM1 by using HRP-cholera toxin B. Similarly, these fractions were tested for the amount of cholesterol using (Biovision Research Products, CA). […]

[7] = tested on: macrophages; assay: Trypan blue exclusion viability of treated macrophages; details: MCD-treated cells
[8] = tested on: macrophage phagocytosis in wounded mice; assay: Inhibition of phagocytosis in vivo by gadolinium chloride, wound closure; details: GdCl3 10 mg/kg IV day -1 and day 0; HSP70 30 μg/dose SC day 0
Procedure: Inhibition of Phagocytosis In vivo. Intravenous injection of gadolinium chloride inhibits phagocytosis of macrophages without affecting their viability or affecting other cell types. Mice were treated (on day minus-1 and day 0) with GdCl3 (10 mg/kg body weight in 200 μl of distilled water) administered intravenously via the retro-orbital venous plexus. Subsequently the mice were wounded as previously described (Day 0) and treated with PBS and HSP70 (30 μg/dose) given subcutaneously on day 0.
Treatment groups shown are (i) HSP70 alone; (ii) HSP70+GdCl3; (iii) PBS alone; and (iv) PBS+GdCl3. *P values were obtained using the Student's t-test by comparing the percent inhibition in wound closure of gadolinium chloride plus treatment to percent wound closure of the treatment alone.

With “lipopolysaccharide [LPS, reference compound]” the “wound healing on day 2” value ([1]; 30 μg/dose, day 2 post surgery) was 25%, the “wound closure of non-HSP controls compared to PBS control” value ([1]; day 2 post surgery) was “not significantly different to the PBS control” and the “benefit to the wounds” value ([1]; same doses as HSPs and significantly smaller quantities) was “not beneficial to the wounds at any of the doses tested”. For the same molecule, the “stimulation of macrophages (TNF-α release)” value [2] was “ineffective at stimulating macrophages”, the “wound healing on day 2 after adoptive transfer of pre-treated macrophages” value [3] was 21% and the “mean fluorescence intensity compared to medium control” value [4] was “not significantly different to the medium control”. The “ability to enhance phagocytosis” value ([5]; serum-free conditions, 1 hour, HSP70 100 μg/ml, LPS 25 ng-1 μg/ml, heating 100° C. for 20 minutes) was “unable to enhance phagocytosis in serum-free conditions”.

With methyl-β-cyclodextrin [MCD] the “dose dependence of inhibitory effect on macrophage response to HSP70” value ([5]; MCD 0-30 mM, HSP70 100 μg/ml) was “titratable”, the “effect of LR-disrupting drugs on HSP70-mediated phagocytosis” value ([5]; nystatin or MCD, labeled yeast 40 particles/macrophage) was “HSP70-mediated phagocytosis was inhibited” and the “effect on binding of exogenous HSP70 to lipid rafts” value [6] was “significant reduction in the binding of exogenously administered HSP70”. The “viability (trypan blue exclusion)” value [7] was 95%.

`[Cl][Gd]([Cl])[Cl]` [GdCl3, gadolinium chloride] was tested, and the “inhibition of the HSP70-mediated effects on wound healing” value [8] was “up to 67%”.
